Test results reported in ChEMBL document CHEMBL3352029, “Ring fusion strategy for the synthesis of anthra[2,3-d]oxazole-2-thione-5,10-dione homologues as DNA topoisomerase inhibitors and as antitumor agents” (Eur J Med Chem, 2014).

How the values were obtained:
[1] = Cytotoxicity against human PC3 cells assessed as inhibition of cell growth after 48 hrs by sulforhodamine B assay; type: functional, cell-based; conditions: PC-3, 48 h
CCRF-CEM = assay: Cytotoxicity against human CCRF-CEM cells assessed as cell growth level at 10 uM after 48 hrs by sulforhodamine B assay; type: functional
HL-60(TB) = assay: Cytotoxicity against human HL-60(TB) cells assessed as cell growth level at 10 uM after 48 hrs by sulforhodamine B assay; type: functional
K562 = assay: Cytotoxicity against human K562 cells assessed as cell growth level at 10 uM after 48 hrs by sulforhodamine B assay; type: functional
MOLT-4 = assay: Cytotoxicity against human MOLT4 cells assessed as cell growth level at 10 uM after 48 hrs by sulforhodamine B assay; type: functional
SR = assay: Cytotoxicity against human SR cells assessed as cell growth level at 10 uM after 48 hrs by sulforhodamine B assay; type: functional
A549 = assay: Cytotoxicity against human A549/ATCC cells assessed as cell growth level at 10 uM after 48 hrs by sulforhodamine B assay; type: functional
HOP-62 = assay: Cytotoxicity against human HOP62 cells assessed as cell growth level at 10 uM after 48 hrs by sulforhodamine B assay; type: functional
NCI-H226 = assay: Cytotoxicity against human NCI-H226 cells assessed as cell growth level at 10 uM after 48 hrs by sulforhodamine B assay; type: functional
NCI-H23 = assay: Cytotoxicity against human NCI-H23 cells assessed as cell growth level at 10 uM after 48 hrs by sulforhodamine B assay; type: functional
NCI-H322M = assay: Cytotoxicity against human NCI-H322M cells assessed as cell growth level at 10 uM after 48 hrs by sulforhodamine B assay; type: functional
NCI-H522 = assay: Cytotoxicity against human NCI-H522 cells assessed as cell growth level at 10 uM after 48 hrs by sulforhodamine B assay; type: functional
COLO 205 = assay: Cytotoxicity against human COLO205 cells assessed as cell growth level at 10 uM after 48 hrs by sulforhodamine B assay; type: functional
HCC 2998 = assay: Cytotoxicity against human HCC2998 cells assessed as cell growth level at 10 uM after 48 hrs by sulforhodamine B assay; type: functional
[2] = Cytotoxicity against human HCT116 cells assessed as cell growth level at 10 uM after 48 hrs by sulforhodamine B assay; type: functional, HCT-116
[3] = Cytotoxicity against human HCT15 cells assessed as cell growth level at 10 uM after 48 hrs by sulforhodamine B assay; type: functional, HCT-15
HT-29 = assay: Cytotoxicity against human HT-29 cells assessed as cell growth level at 10 uM after 48 hrs by sulforhodamine B assay; type: functional
SW-620 = assay: Cytotoxicity against human SW620 cells assessed as cell growth level at 10 uM after 48 hrs by sulforhodamine B assay; type: functional
SF-268 = assay: Cytotoxicity against human SF268 cells assessed as cell growth level at 10 uM after 48 hrs by sulforhodamine B assay; type: functional
SF-295 = assay: Cytotoxicity against human SF295 cells assessed as cell growth level at 10 uM after 48 hrs by sulforhodamine B assay; type: functional
SF-539 = assay: Cytotoxicity against human SF539 cells assessed as cell growth level at 10 uM after 48 hrs by sulforhodamine B assay; type: functional
LOX IMVI = assay: Cytotoxicity against human LOXIMVI cells assessed as cell growth level at 10 uM after 48 hrs by sulforhodamine B assay; type: functional
MDA-MB-435 = assay: Cytotoxicity against human MDA-MB-435 cells assessed as cell growth level at 10 uM after 48 hrs by sulforhodamine B assay; type: functional
SK-MEL-2 = assay: Cytotoxicity against human SK-MEL-2 cells assessed as cell growth level at 10 uM after 48 hrs by sulforhodamine B assay; type: functional
SK-MEL-28 = assay: Cytotoxicity against human SK-MEL-28 cells assessed as cell growth level at 10 uM after 48 hrs by sulforhodamine B assay; type: functional
SK-MEL-5 = assay: Cytotoxicity against human SK-MEL-5 cells assessed as cell growth level at 10 uM after 48 hrs by sulforhodamine B assay; type: functional
[4] = Cytotoxicity against human UACC257 cells assessed as cell growth level at 10 uM after 48 hrs by sulforhodamine B assay; type: functional, UACC-257
[5] = Cytotoxicity against human UACC62 cells assessed as cell growth level at 10 uM after 48 hrs by sulforhodamine B assay; type: functional, UACC-62
IGROV-1 = assay: Cytotoxicity against human IGROV1 cells assessed as cell growth level at 10 uM after 48 hrs by sulforhodamine B assay; type: functional
[6] = Cytotoxicity against human OVCAR3 cells assessed as cell growth level at 10 uM after 48 hrs by sulforhodamine B assay; type: functional, OVCAR-3
[7] = Cytotoxicity against human OVCAR4 cells assessed as cell growth level at 10 uM after 48 hrs by sulforhodamine B assay; type: functional, OVCAR-4
[8] = Cytotoxicity against human OVCAR5 cells assessed as cell growth level at 10 uM after 48 hrs by sulforhodamine B assay; type: functional, OVCAR-5
[9] = Cytotoxicity against human SKOV3 cells assessed as cell growth level at 10 uM after 48 hrs by sulforhodamine B assay; type: functional, SK-OV-3
786-0 = assay: Cytotoxicity against human 786-0 cells assessed as cell growth level at 10 uM after 48 hrs by sulforhodamine B assay; type: functional
A498 = assay: Cytotoxicity against human A498 cells assessed as cell growth level at 10 uM after 48 hrs by sulforhodamine B assay; type: functional
ACHN = assay: Cytotoxicity against human ACHN cells assessed as cell growth level at 10 uM after 48 hrs by sulforhodamine B assay; type: functional
CAKI-1 = assay: Cytotoxicity against human CAKI-1 cells assessed as cell growth level at 10 uM after 48 hrs by sulforhodamine B assay; type: functional
RXF 393 = assay: Cytotoxicity against human RXF393 cells assessed as cell growth level at 10 uM after 48 hrs by sulforhodamine B assay; type: functional
TK-10 = assay: Cytotoxicity against human TK10 cells assessed as cell growth level at 10 uM after 48 hrs by sulforhodamine B assay; type: functional
SN12C = assay: Cytotoxicity against human SN12C cells assessed as cell growth level at 10 uM after 48 hrs by sulforhodamine B assay; type: functional
[10] = Cytotoxicity against human UO31 cells assessed as cell growth level at 10 uM after 48 hrs by sulforhodamine B assay; type: functional, UO-31
[11] = Cytotoxicity against human PC3 cells assessed as cell growth level at 10 uM after 48 hrs by sulforhodamine B assay; type: functional, PC-3
DU-145 = assay: Cytotoxicity against human DU145 cells assessed as cell growth level at 10 uM after 48 hrs by sulforhodamine B assay; type: functional
MCF7 = assay: Cytotoxicity against human MCF7 cells assessed as cell growth level at 10 uM after 48 hrs by sulforhodamine B assay; type: functional
[12] = Cytotoxicity against human Hs 578T cells assessed as cell growth level at 10 uM after 48 hrs by sulforhodamine B assay; type: functional
BT-549 = assay: Cytotoxicity against human BT549 cells assessed as cell growth level at 10 uM after 48 hrs by sulforhodamine B assay; type: functional
MDA-MB-468 = assay: Cytotoxicity against human MDA-MB-468 cells assessed as cell growth level at 10 uM after 48 hrs by sulforhodamine B assay; type: functional

## CN(C)CCCSc1nc2cc3c(cc2o1)C(=O)c1ccccc1C3=O
[1]
  IC50: 16 µM
CCRF-CEM
  Activity: 55.33%
HL-60(TB)
  Activity: 75.05%
K562
  Activity: 51.17%
MOLT-4
  Activity: 13.77%
SR
  Activity: 28.03%
A549
  Activity: 54.13%
HOP-62
  Activity: 85.62%
NCI-H226
  Activity: 100.17%
NCI-H23
  Activity: 97.69%
NCI-H322M
  Activity: 85.16%
NCI-H522
  Activity: 70.64%
COLO 205
  Activity: 59.49%
HCC 2998
  Activity: 100.1%
[2]
  Activity: 59.24%
[3]
  Activity: 68.98%
HT-29
  Activity: 64.03%
SW-620
  Activity: 69.11%
SF-268
  Activity: 102.39%
SF-295
  Activity: 92.69%
SF-539
  Activity: 87.3%
LOX IMVI
  Activity: 76.64%
MDA-MB-435
  Activity: 85.47%
SK-MEL-2
  Activity: 92.13%
SK-MEL-28
  Activity: 108.23%
SK-MEL-5
  Activity: 90.17%
[4]
  Activity: 99.82%
[5]
  Activity: 86%
IGROV-1
  Activity: 71.71%
[6]
  Activity: 100.68%
[7]
  Activity: 109.08%
[8]
  Activity: 86.43%
[9]
  Activity: 77.71%
786-0
  Activity: 86.09%
A498
  Activity: 72.09%
ACHN
  Activity: 57.3%
CAKI-1
  Activity: 73.88%
RXF 393
  Activity: 83.05%
TK-10
  Activity: 73.42%
SN12C
  Activity: 88.52%
[10]
  Activity: 59.82%
[11]
  Activity: 85.96%
DU-145
  Activity: 53.81%
MCF7
  Activity: 52.24%
[12]
  Activity: 91.54%
BT-549
  Activity: 107.23%
MDA-MB-468
  Activity: 88.6%

## O=C1c2ccccc2C(=O)c2cc3oc(SCc4ccc(F)cc4)nc3cc21
[1]
  IC50: > 30 µM
CCRF-CEM
  Activity: 86.28%
HL-60(TB)
  Activity: 95.74%
K562
  Activity: 93.54%
MOLT-4
  Activity: 90.09%
SR
  Activity: 85.14%
A549
  Activity: 83.66%
HOP-62
  Activity: 89.39%
NCI-H226
  Activity: 83.03%
NCI-H23
  Activity: 90.64%
NCI-H322M
  Activity: 85.42%
NCI-H522
  Activity: 80.08%
COLO 205
  Activity: 103.52%
HCC 2998
  Activity: 108.69%
[2]
  Activity: 88.61%
[3]
  Activity: 94.53%
HT-29
  Activity: 91.18%
SW-620
  Activity: 100.32%
SF-268
  Activity: 103.49%
SF-295
  Activity: 86.95%
SF-539
  Activity: 94.71%
LOX IMVI
  Activity: 94.24%
MDA-MB-435
  Activity: 91.05%
SK-MEL-2
  Activity: 86.04%
SK-MEL-28
  Activity: 98.54%
SK-MEL-5
  Activity: 97.58%
[4]
  Activity: 98.94%
[5]
  Activity: 89.94%
IGROV-1
  Activity: 87.04%
[6]
  Activity: 115.02%
[7]
  Activity: 74.06%
[8]
  Activity: 94.94%
[9]
  Activity: 86.24%
786-0
  Activity: 98.08%
A498
  Activity: 94.5%
ACHN
  Activity: 82.53%
CAKI-1
  Activity: 90.54%
RXF 393
  Activity: 90.29%
TK-10
  Activity: 92.13%
SN12C
  Activity: 92.48%
[10]
  Activity: 77.49%
[11]
  Activity: 88.52%
DU-145
  Activity: 103.51%
MCF7
  Activity: 80.56%
[12]
  Activity: 95.47%
BT-549
  Activity: 102.4%
MDA-MB-468
  Activity: 90.68%

## CCSc1nc2cc3c(cc2o1)C(=O)c1ccccc1C3=O
[1]
  IC50: > 30 µM
CCRF-CEM
  Activity: 90.48%
HL-60(TB)
  Activity: 96.05%
K562
  Activity: 96.26%
MOLT-4
  Activity: 101.76%
SR
  Activity: 92.53%
A549
  Activity: 96.49%
HOP-62
  Activity: 75.13%
NCI-H226
  Activity: 82.45%
NCI-H23
  Activity: 90.76%
NCI-H322M
  Activity: 77.88%
NCI-H522
  Activity: 80.08%
COLO 205
  Activity: 98.08%
HCC 2998
  Activity: 101.65%
[2]
  Activity: 95.99%
[3]
  Activity: 96.65%
HT-29
  Activity: 89.08%
SW-620
  Activity: 91.86%
SF-268
  Activity: 102.22%
SF-295
  Activity: 92.06%
SF-539
  Activity: 94.61%
LOX IMVI
  Activity: 91%
MDA-MB-435
  Activity: 101.49%
SK-MEL-2
  Activity: 96.71%
SK-MEL-28
  Activity: 92.36%
SK-MEL-5
  Activity: 100.35%
[4]
  Activity: 92.45%
[5]
  Activity: 89.01%
IGROV-1
  Activity: 79.05%
[6]
  Activity: 101%
[7]
  Activity: 94.25%
[8]
  Activity: 104.57%
[9]
  Activity: 90.67%
786-0
  Activity: 99.33%
A498
  Activity: 80.69%
ACHN
  Activity: 90.86%
CAKI-1
  Activity: 93.49%
RXF 393
  Activity: 101%
TK-10
  Activity: 100.92%
SN12C
  Activity: 98.57%
[10]
  Activity: 57.94%
[11]
  Activity: 84.23%
DU-145
  Activity: 107.71%
MCF7
  Activity: 81.27%
[12]
  Activity: 81.15%
BT-549
  Activity: 114.59%
MDA-MB-468
  Activity: 88.73%
